Drawing on the METLIN SMRT retention time set (Domingo-Almenara et al. 2019), this text covers RP-LC retention time for 60 compounds.

This series in a line: gradient 5% acetonitrile 3 min, to 50% in 2 min, to 85% in 15 min, held 3 min, 100 µL/min. Particulars: column: Zorbax Extend-C18 2.1 x 50 mm; eluents: water / acetonitrile, 0.1% formic acid. The essentials: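 The system's dead and dwell volumes were 40 μL and 900 μL, with a Zorbax Extend-C18 column (2.1 × 50 mm, 1.8 μm) run at 100 μL/min in water and acetonitrile containing 0.1% formic acid each. Pure standards were analyzed in mixtures of ~100 molecules by HPLC–quadrupole time-of-flight mass spectrometry in positive and negative ionization mode. Retention time was assigned from computationally picked, manually inspected adduct peaks.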
`Cc1nc(N2CCN(c3ncccn3)CC2)nc2c1C(=O)CCC2` had an RP-LC retention time of 886 s.

Take `C#CCSc1nc(=O)n2ccc(C)cc2n1`: the RP-LC retention time was 645 s.

For `CCOC(=O)C1CCN(C(=O)C2CCN(c3cncnc3N(C)C)CC2)CC1`, the RP-LC retention time turned out to be 603 s.

With `CCNc1nc(NCC)n2c(SCC(=O)c3cccc(Br)c3)nnc2n1`, the RP-LC retention time turned out to be 680 s.

`Cc1ccccc1NC(=O)N1CCC(n2cnc3c(Cl)cccc3c2=O)CC1` gave an RP-LC retention time of 791 s.

In turn, `CCOCC(=O)N1CCCC(c2nc(CNC(=O)C3CCC3)cs2)C1` (stereo not given) came in with an RP-LC retention time of 645 s.

As for `CCOCCCNc1ccc(-c2nnc(-c3ccc(C)cc3)o2)cn1`, the RP-LC retention time was found to be 801 s.

For the compound `COc1ccccc1CNC(=O)C1CCN(c2cc(N3CCSCC3)ncn2)CC1`, the RP-LC retention time worked out at 717 s.

In turn, `CCOc1ccc(-c2ccc(SCC)nn2)cc1` came in with an RP-LC retention time of 941 s.

The compound `Cc1sc(C)c(S(=O)(=O)NCc2ccccc2)c1-c1cc(C(F)(F)F)on1` displayed an RP-LC retention time of 1140 s.

Take `O=C(CN1CCN(Cc2ccccc2)C1=O)NCc1cccc(Cl)c1`: the RP-LC retention time is 822 s.

Take `CCN(CC)c1nc2cc(C(=O)NCC(C)C)ccc2c(=O)n1Cc1ccccc1`: the RP-LC retention time was 1090 s.

For the compound `Cc1ccc(CNC(=O)C2CCN(C(=O)c3cc(-c4ccncc4)n[nH]3)CC2)o1`, the RP-LC retention time turned out to be 586 s.

For the compound `Cc1ccc(-n2c(N3CCCC(C(=O)NCCCc4ccccc4)C3)nc3ccsc3c2=O)cc1` (stereo not given), the RP-LC retention time was found to be 987 s.

Consider `Nc1c(C(=O)Nc2ccccc2F)sc2nc3c(cc12)CCCC3`, for which the RP-LC retention time is 996 s.

Take `CCCCN1CCN(S(=O)(=O)c2ccc(-c3nnc(C4CCCC4)o3)o2)CC1`: the RP-LC retention time was determined as 678 s.

Consider `Cc1cccc2nnc(N3CCN(C(=O)c4ccsc4)CC3)n12`, for which the RP-LC retention time came to 614 s.

Regarding `c1ccc(-n2ncc3c(NCc4ccc5c(c4)OCO5)ncnc32)cc1`, the RP-LC retention time amounted to 877 s.

`COc1cc(-c2noc(CN3C(=O)C(C)Oc4ccccc43)n2)cc(OC)c1OC` (stereo not given) gave an RP-LC retention time of 980 s.

In turn, `COc1cc(NC(=O)C2CCCN(c3cnc4nccnc4c3)C2)cc(OC)c1` (stereo not given) gave an RP-LC retention time of 712 s.

The compound `CN(C)CC[C@@H](c1ccc(Br)cc1)c1ccccn1` showed an RP-LC retention time of 682 s.

Compound `O=C1[C@@H]2Cc3c([nH]c4ccccc34)C(CCc3ccccc3)N2C(=O)CN1Cc1ccco1` (stereo not given in full) returned an RP-LC retention time of 1000 s.

Regarding `CCCNc1cc(N2CCC(CCC(=O)NCc3c(C)nn(C)c3C)CC2)ncn1`, the RP-LC retention time is 594 s.

Consider `Cc1ccsc1-c1nnc(CC(=O)N2CCN(Cc3ccccc3)CC2)o1`, for which the RP-LC retention time was 630 s.

The compound `O=C(O)c1cc(N2CCN(CC(=O)N3CCCCCC3)CC2)ccc1NC(=O)C1CCC1` displayed an RP-LC retention time of 636 s.

`O=C(Cn1nc2c(N3CCSCC3)nccn2c1=O)Nc1ccc2c(c1)OCCO2`: the RP-LC retention time was 737 s.

`CC(C)n1cc(C2=CCN(S(=O)(=O)c3ccccc3)CC2)c2cccnc21` gave an RP-LC retention time of 702 s.

`COc1ncc(C(=O)N2CCN(c3ccc(F)cc3)CC2)cn1` returned an RP-LC retention time of 735 s.

In turn, `Cc1ccc(C)c(-c2cc3c(=O)n(Cc4noc(-c5ccccn5)n4)ccn3n2)c1` had an RP-LC retention time of 923 s.

Consider `Cc1ccc(-c2noc(Cn3c(=O)n(CC(C)C)c(=O)c4ccccc43)n2)cc1`, for which the RP-LC retention time came to 1240 s.

For `O=C(c1cnccn1)N1CCC(N2C(=O)C(OCC3CC3)C23CCCCC3)CC1` (stereo not given), the RP-LC retention time is 752 s.

The compound `Cc1ccc(CS(=O)(=O)N2CCc3nc(-c4ccc(Cl)cc4)ncc3C2)cc1` gave an RP-LC retention time of 1210 s.

In the case of `Cc1cncn(CC(=O)Nc2ccccc2Cl)c1=O`, the RP-LC retention time worked out at 608 s.

As for `CCCn1cnc2cc(CNC(=O)c3ccc(OC)c(OC)c3)ccc21`, the RP-LC retention time was determined as 606 s.

The compound `COC(=O)c1ccc2c(=O)n(-c3cc(OC)cc(OC)c3)c(N3CCCC3)nc2c1` yielded an RP-LC retention time of 920 s.

For the compound `COc1ccc(C2CC(=O)N(CC(=O)N3CCOCC3)c3ccccc3S2)cc1OC` (stereo not given), the RP-LC retention time came out at 736 s.

In the case of `CC(C)CN1CCn2cc(S(=O)(=O)NCc3ccccc3F)cc2C1=O`, the RP-LC retention time came to 792 s.

`CC(C)c1ccc(-c2nc3ncccn3c2NCc2ccc(Cl)cc2)cc1` showed an RP-LC retention time of 936 s.

As to `O=C(Cn1nc2c(SC3CCCCC3)nccn2c1=O)Nc1ccc(Br)cc1F`, the RP-LC retention time stood at 1120 s.

`CCOc1ccc(Nc2c(-c3ccc(C(=O)O)cc3)nc3cnccn23)cc1` came in with an RP-LC retention time of 729 s.

In turn, `Cc1ccc(NC(=O)c2cc(C(C)C)n3nccc3n2)c(C)c1` came in with an RP-LC retention time of 1200 s.

`Cc1ccc(NC(=O)N2CCC(N3CCN(Cc4ccc(F)cc4)C(=O)C3=O)CC2)c(C)c1` returned an RP-LC retention time of 751 s.

On to `CC(=O)N1CCCC(c2nc(CCNC(=O)C3CCC3)cs2)C1` (stereo not given), for which the RP-LC retention time came out at 625 s.

Regarding `COCc1cc2nn(CC(=O)Nc3ccccc3)c(=O)n2c(-c2ccccc2)n1`, the RP-LC retention time stood at 800 s.

Turning to `Cc1cc(C(=O)Nc2ccc(N3CCOCC3)cc2)nc2cc(-c3ccccn3)nn12`, the RP-LC retention time stood at 802 s.

`CN(CC1CCOC1)C(=O)c1ccc(F)c(F)c1` (stereo not given) came in with an RP-LC retention time of 683 s.

In the case of `COc1cc(OC)c(NC(=O)N2CCC3(C2)c2nc[nH]c2CCN3C)cc1Cl` (stereo not given), the RP-LC retention time came to 569 s.

Turning to `Cc1ccccc1C(=O)Nc1c(-c2ccccc2)nc2ccccn12`, the RP-LC retention time worked out at 634 s.

In the case of `CN(C)CCNc1ccc(-c2nc(-c3ccc(F)cc3)no2)cn1`, the RP-LC retention time worked out at 668 s.

The compound `COCc1cc(=O)n(CC(=O)Nc2ccc(C)cc2C)c(N2CCOCC2)n1` registered an RP-LC retention time of 844 s.

Consider `COc1ccc(-c2nc(-c3ccc4oc(C)nc4c3)no2)cc1`, for which the RP-LC retention time came to 1090 s.

The compound `CC1=C(c2ccccc2)S(=O)(=O)N=C1N1CCCN(C(=O)C2CCC2)CC1` yielded an RP-LC retention time of 769 s.

`COc1cccc(CNC(=O)C2(C)CCCN(C(=O)Nc3ccccc3C(F)(F)F)C2)c1` (stereo not given) displayed an RP-LC retention time of 934 s.

`Cc1ccc(N2C(=O)Cn3cccc3C2C(=O)NC2CCCCC2C)cc1` (stereo not given) registered an RP-LC retention time of 947 s.

The compound `Cc1ccc(NC(=O)C2CCN(S(=O)(=O)c3ccc4c(c3)NC(=O)C(C)O4)CC2)cc1F` (stereo not given) registered an RP-LC retention time of 910 s.

Compound `CCN1CCn2cc(S(=O)(=O)Nc3ccccc3Cl)cc2C1=O` had an RP-LC retention time of 706 s.

On to `Cc1cccc(-c2noc(CN3C(=O)C(C)Oc4ccccc43)n2)c1` (stereo not given), for which the RP-LC retention time was determined as 1110 s.

`Cc1ccc2c(c1)cc(S(=O)(=O)c1ccccc1)c(=O)n2CC(=O)NCC1CCCO1` (stereo not given) gave an RP-LC retention time of 765 s.

`Cc1cc(C)n(-c2ccc(SCC(=O)N3CCCc4ccccc43)nn2)n1` displayed an RP-LC retention time of 914 s.

The compound `O=C(CCn1cnc2cc(-c3noc(Cc4cccs4)n3)ccc21)N1CCCC1` had an RP-LC retention time of 691 s.
